{"source": "patent US10023582B2", "about": "“6-aryl amino pyridone formamide compound crystal and preparation method therefor” (Chia Tai Tianqing Pharmaceutical Group Co., Ltd., priority 2014, dated 2018)", "test": "Stability test (influencing factors: high temperature/humidity and strong light irradiation), total impurities", "assay_type": "physicochemical", "procedure": "A suitable amount of the crystal of the compound of formula (I) prepared in Example 4 was accurately weighed, and methanol was then added thereto to dissolve the crystal. It was diluted quantitatively to obtain a solution containing about 50 μg of the compound per 1 ml of the solution. 10 μl of the solution was accurately measured and injected into the liquid chromatograph, and the chromatogram was recorded. In addition, a suitable amount of the compound of formula (I) was weighed as a control, and measured by the same method as described in the above. The purity was calculated through external standard method based on peak areas.\nReferring to the test method of influencing factors for raw materials described in the Chinese Pharmacopoeia, 2010 edition, Part II, Appendix XIX C, a high-temperature experiment (40° C.±2° C. and a relative humidity of 75%±5%) and strong light irradiation experiment (4500l×±500l×) were conducted on the crystal of the compound of formula (I) prepared in Example 4 for 10 days, respectively. Samples were taken on day 0 and day 10 to measure a total amount of impurities and determine the stability."}
{"smiles": "Cn1c(Nc2ccc(I)cc2Cl)c(C(=O)NOCCO)c2occc2c1=O", "note": "[6-(2-chloro-4-iodophenylamino)-N-(2-hydroxylethyoxyl)-5-methyl-4-oxo-4,5-dihydrofuro[3,2-c]pyridine-7-carboxamide]", "values": [{"measurement": "Total amount of impurities (%)", "setting": "At 40° C., 10 days (40° C.±2° C., relative humidity 75%±5%)", "value": 0.60, "unit": "%"}, {"measurement": "Total amount of impurities (%)", "setting": "Day 0", "value": 0.57, "unit": "%"}, {"measurement": "Total amount of impurities (%)", "setting": "Irradiation for 10 days (strong light, 4500l×±500l×)", "value": 0.68, "unit": "%"}]}
